According to ChEMBL document CHEMBL3046206, “Synthesis of new 4-(2,5-dimethylpyrrol-1-yl)/4-pyrrol-1-yl benzoic acid hydrazide analogs and some derived oxadiazole, triazole and pyrrole ring systems: a novel class of potential antibacterial, antifungal and antitubercular agents” (Med Chem Res, 2013):
Values after ≈ are worked out from the molar mass of the structure shown.

Legend:
Staphylococcus aureus = assay: Antibacterial activity against Staphylococcus aureus after 18 hr by broth microdilution technique; assay type: functional
Aspergillus niger = assay: Antifungal activity against Aspergillus niger after 18 hr by broth microdilution technique; assay type: functional
Bacillus subtilis = assay: Antibacterial activity against Bacillus subtilis after 18 hr by broth microdilution technique; assay type: functional
Klebsiella pneumoniae = assay: Antibacterial activity against Klebsiella pneumoniae after 18 hr by broth microdilution technique; assay type: functional
Candida tropicalis = assay: Antifungal activity against Candida tropicalis after 18 hr by broth microdilution technique; assay type: functional
Pseudomonas aeruginosa = assay: Antibacterial activity against Pseudomonas aeruginosa after 18 hr by broth microdilution technique; assay type: functional
[1] = tested on: Mycobacterium tuberculosis; assay: Antimycobacterial activity against Mycobacterium tuberculosis H37Rv after 21 days by broth dilution method; assay type: functional; conditions: 504 h
Enterococcus faecalis = assay: Antibacterial activity against Enterococcus faecalis after 18 hr by broth microdilution technique; assay type: functional
Saccharomyces cerevisiae = assay: Antifungal activity against Saccharomyces cerevisiae after 18 hr by broth microdilution technique; assay type: functional
Escherichia coli = assay: Antibacterial activity against Escherichia coli after 18 hr by broth microdilution technique; assay type: functional
Vero = assay: Cytotoxicity against Chlorocebus aethiops (African green monkey) Vero cells after 72 hr by MTT assay; assay type: cell-based; conditions: Chlorocebus sabaeus
A549 = assay: Cytotoxicity against Homo sapiens (human) A549 cells after 72 hr by MTT assay; assay type: cell-based; conditions: A549, 72 h

| SMILES | MIC (Staphylococcus aureus) [µg/mL] | MIC (Aspergillus niger) [µg/mL] | MIC (Bacillus subtilis) [µg/mL] | MIC (Klebsiella pneumoniae) [µg/mL] | MIC (Candida tropicalis) [µg/mL] | MIC (Pseudomonas aeruginosa) [µg/mL] | MIC [1] [µg/mL] | MIC (Enterococcus faecalis) [µg/mL] | MIC (Saccharomyces cerevisiae) [µg/mL] | MIC (Escherichia coli) [µg/mL] | IC50 (Vero) [µM] | IC50 (A549) [µM] |
| --- | --- | --- | --- | --- | --- | --- | --- | --- | --- | --- | --- | --- |
| Cc1ccc(C)n1-c1ccc(C(=O)NN)cc1 | 62.5 (≈ 273 µM) | 62.5 (≈ 273 µM) | 62.5 (≈ 273 µM) | 62.5 (≈ 273 µM) | 62.5 (≈ 273 µM) | 500 (≈ 2180 µM) | 62.5 (≈ 273 µM) | 62.5 (≈ 273 µM) | 62.5 (≈ 273 µM) | 500 (≈ 2180 µM) |  |  |
| O=[N+]([O-])c1ccccc1-c1nnc(-c2ccc(-n3cccc3)cc2)o1 | 31.2 (≈ 94 µM) | 31.2 (≈ 94 µM) | 4 (≈ 12 µM) | > 500 | 31.2 (≈ 94 µM) | 4 (≈ 12 µM) | 2 (≈ 6.02 µM) | 16 (≈ 48.1 µM) | 31.2 (≈ 94 µM) | 4 (≈ 12 µM) | 266 | 267 |
| O=[N+]([O-])c1cccc(-c2nnc(-c3ccc(-n4cccc4)cc3)o2)c1 | 31.2 (≈ 94 µM) | 31.2 (≈ 94 µM) | 8 (≈ 24.1 µM) | > 500 | 31.2 (≈ 94 µM) | 8 (≈ 24.1 µM) | 8 (≈ 24.1 µM) | 31.2 (≈ 94 µM) | 31.2 (≈ 94 µM) | 8 (≈ 24.1 µM) | 251 | 256 |
| O=[N+]([O-])c1ccc(-c2nnc(-c3ccc(-n4cccc4)cc3)o2)cc1 | 31.2 (≈ 94 µM) | 31.2 (≈ 94 µM) | 4 (≈ 12 µM) | > 500 | 31.2 (≈ 94 µM) | 4 (≈ 12 µM) | 2 (≈ 6.02 µM) | 16 (≈ 48.1 µM) | 31.2 (≈ 94 µM) | 4 (≈ 12 µM) | 258 | 258 |
| Clc1ccc(-c2nnc(-c3ccc(-n4cccc4)cc3)o2)cc1 | 31.2 (≈ 97.1 µM) | 16 (≈ 49.7 µM) | 4 (≈ 12.4 µM) | > 500 | 4 (≈ 12.4 µM) | 4 (≈ 12.4 µM) | 2 (≈ 6.22 µM) | 16 (≈ 49.7 µM) | 8 (≈ 24.9 µM) | 4 (≈ 12.4 µM) | 253 | 256 |
| Fc1ccc(-c2nnc(-c3ccc(-n4cccc4)cc3)o2)cc1C(F)(F)F | 31.2 (≈ 83.7 µM) | 4 (≈ 10.7 µM) | 1 (≈ 2.68 µM) | > 500 | 2 (≈ 5.36 µM) | 2 (≈ 5.36 µM) | 1 (≈ 2.68 µM) | 8 (≈ 21.4 µM) | 4 (≈ 10.7 µM) | 2 (≈ 5.36 µM) | 268 | 270 |
| Cc1ccc(C)n1-c1ccc(C(=O)N/N=C/c2ccc(O)cc2)cc1 | 16 (≈ 48 µM) | 16 (≈ 48 µM) | 31.2 (≈ 93.7 µM) | 62.5 (≈ 187 µM) | 16 (≈ 48 µM) | 500 (≈ 1500 µM) | 31.2 (≈ 93.7 µM) | 16 (≈ 48 µM) | 16 (≈ 48 µM) | 500 (≈ 1500 µM) |  |  |
| Cc1ccc(C)n1-c1ccc(C(=O)N/N=C/c2ccc(N(C)C)cc2)cc1 | 31.2 (≈ 86.7 µM) | 31.2 (≈ 86.7 µM) | 31.2 (≈ 86.7 µM) | 62.5 (≈ 173 µM) | 31.2 (≈ 86.7 µM) | 500 (≈ 1390 µM) | 31.2 (≈ 86.7 µM) | 31.2 (≈ 86.7 µM) | 31.2 (≈ 86.7 µM) | 500 (≈ 1390 µM) |  |  |
| CC(C)=NNC(=O)c1ccc(-n2c(C)ccc2C)cc1 | 31.2 (≈ 116 µM) | 62.5 (≈ 232 µM) | 16 (≈ 59.4 µM) | 500 (≈ 1860 µM) | 31.2 (≈ 116 µM) | 500 (≈ 1860 µM) | 31.2 (≈ 116 µM) | 31.2 (≈ 116 µM) | 62.5 (≈ 232 µM) | 500 (≈ 1860 µM) |  |  |
| C/C(=N/NC(=O)c1ccc(-n2c(C)ccc2C)cc1)c1ccccc1 | 62.5 (≈ 189 µM) | 62.5 (≈ 189 µM) | 16 (≈ 48.3 µM) | 500 (≈ 1510 µM) | 62.5 (≈ 189 µM) | 500 (≈ 1510 µM) | 31.2 (≈ 94.3 µM) | 31.2 (≈ 94.3 µM) | 62.5 (≈ 189 µM) | 500 (≈ 1510 µM) |  |  |
| Cc1ccc(C)n1-c1ccc(C(=O)NN=C(c2ccccc2)c2ccccc2)cc1 | 62.5 (≈ 159 µM) | 62.5 (≈ 159 µM) | 31.2 (≈ 79.4 µM) | 500 (≈ 1270 µM) | 62.5 (≈ 159 µM) | 500 (≈ 1270 µM) | 31.2 (≈ 79.4 µM) | 31.2 (≈ 79.4 µM) | 62.5 (≈ 159 µM) | 500 (≈ 1270 µM) |  |  |
| C/C(=N/NC(=O)c1ccc(-n2c(C)ccc2C)cc1)c1ccc(N)cc1 | 31.2 (≈ 90.2 µM) | 62.5 (≈ 180 µM) | 62.5 (≈ 180 µM) | 500 (≈ 1440 µM) | 62.5 (≈ 180 µM) | 500 (≈ 1440 µM) | 31.2 (≈ 90.2 µM) | 62.5 (≈ 180 µM) | 62.5 (≈ 180 µM) | 500 (≈ 1440 µM) |  |  |
| Cc1ccc(C)n1-c1ccc(C(=O)N/N=C/c2ccccc2)cc1 | 31.2 (≈ 98.5 µM) | 31.2 (≈ 98.5 µM) | 31.2 (≈ 98.5 µM) | 62.5 (≈ 197 µM) | 31.2 (≈ 98.5 µM) | 62.5 (≈ 197 µM) | 31.2 (≈ 98.5 µM) | 62.5 (≈ 197 µM) | 62.5 (≈ 197 µM) | 62.5 (≈ 197 µM) |  |  |
| Cc1ccc(C)n1-c1ccc(C(=O)N/N=C/c2ccccc2Cl)cc1 | 16 (≈ 45.5 µM) | 16 (≈ 45.5 µM) | 8 (≈ 22.7 µM) | 62.5 (≈ 178 µM) | 8 (≈ 22.7 µM) | 500 (≈ 1420 µM) | 16 (≈ 45.5 µM) | 31.2 (≈ 88.8 µM) | 31.2 (≈ 88.8 µM) | 500 (≈ 1420 µM) |  |  |
| Cc1ccc(C)n1-c1ccc(C(=O)N/N=C/c2ccc(Br)cc2)cc1 | 16 (≈ 40.4 µM) | 16 (≈ 40.4 µM) | 16 (≈ 40.4 µM) | 500 (≈ 1260 µM) | 8 (≈ 20.2 µM) | > 500 | 16 (≈ 40.4 µM) | 31.2 (≈ 78.9 µM) | 31.2 (≈ 78.9 µM) | 500 (≈ 1260 µM) |  |  |
| Cc1ccc(C)n1-c1ccc(C(=O)N/N=C/c2c(Cl)cccc2Cl)cc1 | 16 (≈ 41.4 µM) | 4 (≈ 10.4 µM) | 16 (≈ 41.4 µM) | 500 (≈ 1290 µM) | 4 (≈ 10.4 µM) | 500 (≈ 1290 µM) | 16 (≈ 41.4 µM) | 16 (≈ 41.4 µM) | 31.2 (≈ 80.9 µM) | 500 (≈ 1290 µM) |  |  |
| Cc1ccc(C)n1-c1ccc(C(=O)N/N=C/c2cccc([N+](=O)[O-])c2)cc1 | 31.2 (≈ 86.2 µM) | 16 (≈ 44.2 µM) | 31.2 (≈ 86.2 µM) | 500 (≈ 1380 µM) | 16 (≈ 44.2 µM) | 500 (≈ 1380 µM) | 62.5 (≈ 172 µM) | 31.2 (≈ 86.2 µM) | 31.2 (≈ 86.2 µM) | 500 (≈ 1380 µM) |  |  |
| Cc1ccc(C)n1-c1ccc(C(=O)N/N=C/c2ccccc2[N+](=O)[O-])cc1 | 62.5 (≈ 172 µM) | 16 (≈ 44.2 µM) | 31.2 (≈ 86.2 µM) | > 500 | 16 (≈ 44.2 µM) | > 500 | 62.5 (≈ 172 µM) | 31.2 (≈ 86.2 µM) | 31.2 (≈ 86.2 µM) | > 500 |  |  |
| O=C(O)c1cn(C2CC2)c2cc(N3CCNCC3)c(F)cc2c1=O [CIPROFLOXACIN] | < 5 |  | ≤ 1 | ≤ 1 |  | > 5 |  | < 5 |  | ≤ 1 |  |  |
| OC(Cn1cncn1)(Cn1cncn1)c1ccc(F)cc1F [FLUCONAZOLE] |  | ≤ 1 |  |  | ≤ 1 |  |  |  | ≤ 1 |  |  |  |
| NNC(=O)c1ccncc1 [ISONIAZID] |  |  |  |  |  |  | 0.25 (≈ 1.82 µM) |  |  |  | > 450 | > 450 |
| CCn1cc(C(=O)O)c(=O)c2cc(F)c(N3CCNCC3)cc21 [NORFLOXACIN] | < 5 |  | ≤ 1 | ≤ 1 |  | > 5 |  | < 5 |  | ≤ 1 |  |  |
